Patent publication US20110086389A1, “Compositions and Methods for Expressing In-Frame Multimeric Proteins” (priority 2008, published 2011)
Like-named read-outs stand apart in the source and are kept apart here. Where a SMILES comes first, the peptide text is derived from it. Bridges are numbered along the chain shown (N, C = ends). Where no end group is shown, it is not given here.

Key:
[1] = target: T1, Kv1.1-1.2-1.1-1.2 (forward diagonal channel) (Rattus norvegicus, UniProt P10499+P63142); experiment: Whole-cell voltage-clamp (QPatch) inhibition of K+ current, diagonal channel; format: cell-based; settings: for IC50: HEK-293 cells
T1 construct: nucleic acids encoding the full-length Kv subunit; inter-subunit linker to next subunit (region from Xenopus beta-globin UTRs); expressed in transfected cells; host or cells: HEK-293 (pIRES2-EGFP vector)
T1 sequence (P10499 whole entry): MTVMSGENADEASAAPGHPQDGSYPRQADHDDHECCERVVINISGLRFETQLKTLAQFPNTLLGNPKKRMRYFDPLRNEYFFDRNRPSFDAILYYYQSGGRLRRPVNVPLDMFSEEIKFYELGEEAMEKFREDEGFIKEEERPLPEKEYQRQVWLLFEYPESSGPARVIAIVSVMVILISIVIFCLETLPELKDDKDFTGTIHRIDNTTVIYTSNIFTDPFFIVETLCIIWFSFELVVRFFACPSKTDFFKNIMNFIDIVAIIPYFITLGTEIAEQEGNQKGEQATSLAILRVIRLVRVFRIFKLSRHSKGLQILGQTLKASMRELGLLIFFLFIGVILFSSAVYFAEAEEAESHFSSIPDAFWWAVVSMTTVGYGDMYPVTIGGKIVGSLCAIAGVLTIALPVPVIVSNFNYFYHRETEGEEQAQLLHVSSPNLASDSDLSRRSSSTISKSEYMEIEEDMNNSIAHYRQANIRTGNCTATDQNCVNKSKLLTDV
T1 sequence (P63142 whole entry): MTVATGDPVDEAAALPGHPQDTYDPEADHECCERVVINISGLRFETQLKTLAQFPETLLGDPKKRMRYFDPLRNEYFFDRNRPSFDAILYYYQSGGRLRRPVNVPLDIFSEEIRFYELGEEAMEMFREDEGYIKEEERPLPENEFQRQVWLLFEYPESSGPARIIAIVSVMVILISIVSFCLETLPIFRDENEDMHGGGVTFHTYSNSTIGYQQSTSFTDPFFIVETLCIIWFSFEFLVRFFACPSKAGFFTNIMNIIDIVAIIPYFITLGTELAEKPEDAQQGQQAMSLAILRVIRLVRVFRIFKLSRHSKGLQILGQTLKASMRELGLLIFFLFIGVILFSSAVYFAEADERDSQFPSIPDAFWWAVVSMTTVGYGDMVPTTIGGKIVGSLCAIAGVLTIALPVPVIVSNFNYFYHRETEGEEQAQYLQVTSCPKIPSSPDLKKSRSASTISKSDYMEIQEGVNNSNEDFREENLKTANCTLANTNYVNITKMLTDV
T1 sequence (P10499 whole entry): as the sequence (P10499 whole entry) above
T1 sequence (P63142 whole entry): as the sequence (P63142 whole entry) above
Protocol: (§1) Whole-cell voltage-clamp experiments were performed as outlined in Sokolov, et al., Neuropharmacol. 53:2, 272-282, (2007), whose disclosure is hereby incorporated by reference. The internal solution was (in mM): 90 KCl, 50 KF, 30 KOH, 10 EGTA, 20 HEPES, pH 7.4. The extracellular bath solution contained (in mM) 135 choline chloride, 20 KOH, 1.8 CaCl2, 1 MgCl2, and 40 HEPES, pH 7.4, and 0.01% (w/v) BSA. Solutions were exchanged by continuous flow with a peristaltic pump or a Cellectricon Dynaflow-16 system. Series resistance compensation was applied to minimize the voltage error (<10 mV). Correction was made for a calculated liquid junction potential of +8.4 mV. Holding potential was −100 mV. Leak subtraction was used to isolate K^+ current (IK). Analogue traces were filtered at 5 kHz, and sampled at 50 kHz. Non-linear fitting was carried out with equations described in (Sack et al., Gen. Physiol. 128:1, 119-132, (2006), whose disclosure is hereby incorporated by reference. Data are reported as mean±standard error; n values refer to number of individual cells tested. Statistical significance was evaluated by two-tailed Student's t-test using data obtained from at least five independent experiments performed in parallel.
(§2) In these examples, the functional properties of the Kv1 heteromers Kv1.1-1.1-1.2-1.2, Kv1.1-1.2-1.1-1.2, […] and Kv1.2-1.1-1.2-1.1 were compared by whole-cell, voltage-clamp, conventional recordings from HEK-293 cells transfected separately with each of the 4 constructs.
(§3) In these examples the sensitivities of the potassium channel currents mediated by these tetramers to various blockers were also examined. Inhibition by TEA, or Agitoxinl (AgTX1) and TsTX-Kα were determined.
(§4) Whole-cell voltage-clamp was performed as described in Example 25-27, except where specified. For larger scale recordings, an automated patch-clamp system (QPatch 16, Sophion, Denmark) was used; its disposable Qplates contain 16 individual and parallel patch-clamp positions. Cells were detached from culture plates with 0.05% trypsin/EDTA solution and kept in serum-free medium (CHO-S-SFM II [Invitrogen], 25 mM HEPES, pH 7.4, 0.04 μg/ml soya bean trypsin inhibitor, and 10 μg/ml penicillin-streptomycin) in an on-board stirred reservoir. Prior to testing, the cells were automatically transferred to an integral mini-centrifuge, pelleted, re-suspended in external solution (as detailed above) and washed before being applied to the pipeting wells in the Q plate. Giga-seals were formed upon execution of a combined suction/voltage protocol; gradually increasing suction leads to the whole-cell configuration. […] Whole cell currents were measured at a holding potential of −100 mV, then depolarised to +60 mV for 200 ms or stepped from the holding potential in +10 mV increments. […]

[2] = target: T2, Kv1.2-1.2-1.1-1.1 (reverse adjacent channel) (Rattus norvegicus, UniProt P10499+P63142); experiment: Whole-cell voltage-clamp (QPatch) inhibition of K+ current, reverse adjacent channel; format: cell-based; settings: HEK-293 cells, holding −100 mV, depolarised to +60 mV
T2 construct: nucleic acids encoding the full-length Kv subunit; inter-subunit linker to next subunit (region from Xenopus beta-globin UTRs); expressed in transfected cells; host or cells: HEK-293 (pIRES2-EGFP vector)
T2 sequence (P63142 whole entry): as above
T2 sequence (P63142 whole entry): as above
T2 sequence (P10499 whole entry): as the sequence (P10499 whole entry) above
T2 sequence (P10499 whole entry): as above
Protocol: as §1, §2, §3
(§5) Whole-cell voltage-clamp was performed as described in Example 25-27, except where specified. […] Whole cell currents were measured at a holding potential of −100 mV, then depolarised to +60 mV for 200 ms or stepped from the holding potential in +10 mV increments. […]

[3] = target: T3, Kv1.2-1.1-1.2-1.1 (reverse diagonal channel) (Rattus norvegicus, UniProt P10499+P63142); experiment: Whole-cell voltage-clamp (QPatch) inhibition of K+ current, reverse diagonal channel; format: cell-based; settings: HEK-293 cells
T3 construct: nucleic acids encoding the full-length Kv subunit; inter-subunit linker to next subunit (region from Xenopus beta-globin UTRs); expressed in transfected cells; host or cells: HEK-293 (pIRES2-EGFP vector)
T3 sequence (P63142 whole entry): as the sequence (P63142 whole entry) above
T3 sequence (P10499 whole entry): as the sequence (P10499 whole entry) above
T3 sequence (P63142 whole entry): as the sequence (P63142 whole entry) above
T3 sequence (P10499 whole entry): as the sequence (P10499 whole entry) above
Protocol: as §1, §2, §3, §5

[4] = target: T4, Kv1.1-1.2 dimer-containing channel (Rattus norvegicus, UniProt P10499+P63142); experiment: Whole-cell voltage-clamp inhibition of K+ current, dimer-containing channel; format: cell-based; settings: HEK-293 cells
T4 construct: expressed in transfected cells
T4 sequence (P10499 whole entry): as above
T4 sequence (P63142 whole entry): as the sequence (P63142 whole entry) above
Protocol: as §1, §2, §3, §5

[5] = target: T5, Kv1.1-1.1-1.2-1.2 (forward adjacent channel) (Rattus norvegicus, UniProt P10499+P63142); experiment: Whole-cell voltage-clamp (QPatch) inhibition of K+ current, adjacent channel; format: cell-based; settings: for IC50: HEK-293 cells, holding −100 mV, depolarised to +60 mV
T5 construct: nucleic acids encoding the full-length Kv subunit; inter-subunit linker to next subunit (region from Xenopus beta-globin UTRs); expressed in transfected cells; host or cells: HEK-293 (pIRES2-EGFP vector)
T5 sequence (P10499 whole entry): as the sequence (P10499 whole entry) above
T5 sequence (P10499 whole entry): as above
T5 sequence (P63142 whole entry): as the sequence (P63142 whole entry) above
T5 sequence (P63142 whole entry): as above
Protocol: as §1, §2, §3, §4

[6] = target: T6, Kv1.1-1.1-1.2-1.2 tetramer (Rattus norvegicus, UniProt P10499+P63142); experiment: Competition of 125I-αDTX binding to transfected HEK-293 cells; parameters: displacement of 125I-αDTX from the tetramer: dose or concentration left out as unconfirmed; settings: for displacement of 125I-αDTX from the tetramer: transfected HEK-293 cells, FIG. 4B
T6 construct: nucleic acids encoding the full-length Kv subunit; inter-subunit linker to next subunit (region from Xenopus beta-globin UTRs); expressed in transfected cells; host or cells: HEK-293 (pIRES2-EGFP vector)
T6 sequence (P10499 whole entry): as the sequence (P10499 whole entry) above
T6 sequence (P10499 whole entry): as above
T6 sequence (P63142 whole entry): as the sequence (P63142 whole entry) above
T6 sequence (P63142 whole entry): as above
Protocol: HEK 293 cells are transiently transfected with a PIRES2-EGFP vector encoding Kv1.1-1.1-1.2-1.2 (also referred to as forward adjacent channel; see below) and the cells incubated to display the potassium channels on the cell membranes.
Cells are harvested in 25 mM Tris HCl, 5 mM KCl pH 7.5 Saturatable binding of ^125I-α-dendrotoxin (DTX), a Kv1-selective toxin, was performed using a filtration assay to measure the amount of assembled channel targeted to the plasmalemma. Transfected cells suspended in binding buffer were incubated for 1 hour with increasing concentrations of labelled DTX; for non-saturable binding experiments, the incubation is performed in the presence of 1 μM unlabeled DTX. Measurements are made in triplicate under established conditions by rapid filtration through GF/F glass microfiber filters presoaked with 0.5% (w/v) polyethyleneimine. The radioactivity associated with the washed filters was quantified by γ-radiation counting.
In FIG. […]

Kv1.4-1.6-1.1-1.2 = target: T7, Kv1.4-1.6-1.1-1.2 (Rattus norvegicus, UniProt P10499+P15385+P17659+P63142); experiment: Whole-cell voltage-clamp inhibition of IK, Kv1.4-containing hetero-tetramers; format: cell-based; settings: Kv1.4-1.6-1.1-1.2 versus Kv1.4-1.6-1.3-1.2; 1, 10, 100 nM; assayed at ≦0 mV, FIG. 10F
T7 construct: nucleic acids encoding the full-length Kv subunit; inter-subunit linker to next subunit (region from Xenopus beta-globin UTRs); expressed in transfected cells; host or cells: HEK-293
T7 sequence (P15385 whole entry): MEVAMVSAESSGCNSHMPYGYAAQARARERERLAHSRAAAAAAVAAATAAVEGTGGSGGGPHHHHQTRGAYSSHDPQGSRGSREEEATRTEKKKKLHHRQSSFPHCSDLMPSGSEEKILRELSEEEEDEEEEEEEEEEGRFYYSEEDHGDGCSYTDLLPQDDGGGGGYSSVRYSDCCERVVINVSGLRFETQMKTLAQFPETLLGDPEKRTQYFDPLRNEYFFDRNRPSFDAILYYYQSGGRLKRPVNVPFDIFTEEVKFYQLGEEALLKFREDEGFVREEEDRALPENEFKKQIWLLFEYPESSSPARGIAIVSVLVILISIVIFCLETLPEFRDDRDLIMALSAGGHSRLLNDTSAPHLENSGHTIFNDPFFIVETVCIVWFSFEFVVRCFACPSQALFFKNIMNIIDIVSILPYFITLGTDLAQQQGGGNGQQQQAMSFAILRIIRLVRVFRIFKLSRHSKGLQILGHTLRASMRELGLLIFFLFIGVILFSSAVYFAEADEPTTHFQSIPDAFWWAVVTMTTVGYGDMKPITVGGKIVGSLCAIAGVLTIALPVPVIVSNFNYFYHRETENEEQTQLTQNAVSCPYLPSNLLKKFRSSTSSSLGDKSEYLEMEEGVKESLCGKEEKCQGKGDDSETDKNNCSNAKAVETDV
T7 sequence (P17659 whole entry): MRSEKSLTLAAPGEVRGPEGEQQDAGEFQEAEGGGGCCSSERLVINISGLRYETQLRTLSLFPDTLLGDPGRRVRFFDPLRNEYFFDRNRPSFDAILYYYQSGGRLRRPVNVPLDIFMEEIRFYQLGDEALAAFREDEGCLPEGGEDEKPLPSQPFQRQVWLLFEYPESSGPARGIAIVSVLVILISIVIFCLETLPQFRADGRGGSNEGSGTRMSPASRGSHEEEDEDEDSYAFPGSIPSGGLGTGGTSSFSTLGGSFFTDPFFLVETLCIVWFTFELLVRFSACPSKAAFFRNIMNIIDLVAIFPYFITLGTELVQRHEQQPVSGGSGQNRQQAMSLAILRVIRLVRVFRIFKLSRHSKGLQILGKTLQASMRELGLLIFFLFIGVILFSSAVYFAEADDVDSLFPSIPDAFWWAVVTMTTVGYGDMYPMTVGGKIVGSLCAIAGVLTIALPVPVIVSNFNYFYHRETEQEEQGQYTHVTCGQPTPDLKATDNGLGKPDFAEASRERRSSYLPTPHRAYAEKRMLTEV
T7 sequence (P10499 whole entry): as the sequence (P10499 whole entry) above
T7 sequence (P63142 whole entry): as the sequence (P63142 whole entry) above
Protocol: In these examples, the functional properties of the concatenated Kv1 heteromers Kv 1.1-1.1-1.2-1.2, Kv1.4-1.6-1.1-1.2 and Kv1.4-1.6-1.3-1.2 were examined by whole-cell voltage-clamped recordings from the corresponding transfected HEK-293 cells. The activation kinetics of the currents mediated by Kv 1.1-1.1-1.2-1.2 Kv 1.4-1.6-1.1-1.2 and Kv1.4-1.6-1.3-1.2 were determined.
The sensitivities of the potassium channel currents mediated by Kv 1.1-1.1-1.2-1.2 Kv 1.4-1.6-1.1-1.2 and Kv1.4-1.6-1.3-1.2 to various blockers were also examined in these examples.
Whole-cell voltage-clamp experiments were performed as outlined in Sokolov, et al., Neuropharmacol. 53:2, 272-282, (2007), whose disclosure is hereby incorporated by reference. The internal solution was (in mM): 90 KCl, 50 KF, 30 KOH, 10 EGTA, 20 HEPES, pH 7.4. […] Correction was made for a calculated liquid junction potential of +8.4 mV. […] Non-linear fitting was carried out with equations described in (Sack et al., Gen. Physiol. 128:1, 119-132, (2006), whose disclosure is hereby incorporated by reference. Data are reported as mean±standard error; n values refer to number of individual cells tested. Statistical significance was evaluated by two-tailed Student's t-test using data obtained from at least five independent experiments performed in parallel.

[7] = unit printed in cell (row head says nM), read-out: IC50 AgTx1
[8] = holding −100 mV, depolarised to +60 mV, read-out: IC50 TEA
[9] = unit printed in cell (row head says nM), read-out: IC50 TsTxKα

CC[C@H](C)[C@@H]1NC(=O)[C@@H]2CSSC[C@H](NC(=O)[C@H](CCCCN)NC(=O)[C@@H](NC(=O)[C@H](CC(N)=O)NC(=O)[C@@H](NC(=O)[C@@H]3CCCN3C(=O)[C@@H](NC(=O)CN)C(C)C)[C@@H](C)CC)C(C)C)C(=O)N[C@@H]([C@@H](C)O)C(=O)NCC(=O)N[C@@H](CO)C(=O)N3CCC[C@H]3C(=O)N[C@@H](CCC(N)=O)C(=O)N[C@H]3CSSC[C@H](NC(=O)[C@H](CCCCN)NC(=O)CNC(=O)[C@H](CC(N)=O)NC1=O)C(=O)N[C@@H](Cc1c[nH]cn1)C(=O)N[C@H](C(=O)N[C@H](C(=O)N1CCC[C@H]1C(=O)N[C@@H](CCCCN)C(=O)O)[C@@H](C)O)CSSC[C@H](NC(=O)[C@@H]1CCCN1C(=O)[C@H](CCCCN)NC(=O)[C@H](CC(C)C)NC3=O)C(=O)N[C@@H](CCCCN)C(=O)N[C@@H](CC(=O)O)C(=O)N[C@@H](C)C(=O)NCC(=O)N[C@@H](CCSC)C(=O)N[C@@H](CCCNC(=N)N)C(=O)N[C@@H](Cc1ccccc1)C(=O)NCC(=O)N[C@@H](CCCCN)C(=O)N2 [AgTx1, Agitoxinl] (H-GVPINVKCTGSPQCLKPCKDAGMRFGKCINGKCHCTPK-OH; disulfide 8-28, 14-33, 18-35; N-terminus and C-terminus assumed)
IC50 [1, 7]: > 1000 nM | sensitivity to AgTX1 ([1]; diagonal oligomers, FIG. 12C): virtually insensitive | IC50 ([2]; read-out: IC50 AgTx1): 0.005 ± 0.0005 µM | IC50 [3, 7]: ≥ 1000 nM | IC50 ([4]; read-out: IC50 AgTx1): 0.039 ± 0.004 µM | IC50 ([5]; read-out: IC50 AgTx1): 0.005 ± 0.0004 µM

CC[N+](CC)(CC)CC [TEA, tetraethylammonium]
IC50 [1, 8]: 760000 ± 100000 nM | IC50 ([2]; read-out: IC50 TEA): 6700 ± 2000 µM | IC50 [3, 8]: 960000 ± 140000 nM | IC50 ([4]; read-out: IC50 TEA): 12000 ± 1000 µM | IC50 ([5]; read-out: IC50 TEA): 9700 ± 1000 µM | fold lower affinity for TEA than the corresponding diagonals ([5]; forward and reverse adjacent channels versus diagonal channels, FIG. 12B): ~11 fold

CC[C@H](C)[C@@H]1NC(=O)[C@H](C)NC(=O)[C@H](CCC(=O)O)NC(=O)[C@H](CCCCN)NC(=O)[C@@H]2CSSC[C@@H](C(=O)N[C@@H](Cc3ccc(O)cc3)C(=O)N3CCC[C@H]3C(=O)O)NC(=O)[C@H](CCCCN)NC(=O)[C@@H]3CSSC[C@H](NC(=O)[C@H](CCC(=O)O)NC(=O)[C@@H]4CCCN4C(=O)[C@H](CO)NC(=O)CNC(=O)[C@H](CCCNC(=N)N)NC(=O)[C@@H](NC(=O)[C@H](CCCCN)NC(=O)[C@H](C)NC(=O)[C@H](CC(N)=O)NC(=O)[C@@H](NC(=O)[C@H](Cc4ccccc4)NC(=O)[C@@H](N)C(C)C)[C@@H](C)CC)CSSC[C@H](NC(=O)[C@H](CCCCN)NC(=O)CNC(=O)[C@H](C)NC(=O)[C@H](C)NC(=O)[C@H](CCCCN)NC(=O)CNC1=O)C(=O)N[C@@H](CCSC)C(=O)N[C@@H](CC(N)=O)C(=O)NCC(=O)N[C@@H](CCCCN)C(=O)N3)C(=O)N[C@@H](CC(C)C)C(=O)N1CCC[C@H]1C(=O)N[C@@H](CCCCN)C(=O)N2 [TsTxKα, tityustoxin-Kα] (H-VFINAKCRGSPECLPKCKEAIGKAAGKCMNGKCKCYP-OH; disulfide 7-28, 13-33, 17-35; N-terminus and C-terminus assumed)
displacement of 125I-αDTX from the tetramer [6]: readily displaced | IC50 [1, 9]: > 1000 nM | IC50 ([2]; read-out: IC50 TsTxKα): 0.025 ± 0.007 µM | IC50 [3, 9]: > 1000 nM | IC50 ([4]; read-out: IC50 TsTxKα): 0.033 ± 0.003 µM | IC50 ([5]; read-out: IC50 TsTxKα): 0.026 ± 0.003 µM

DTXk: toxin, Kv1 channel blocker competing with 125I-αDTX (AAKYCKLPLRIGPCKRKIPSFYYKWKAKQCLPFDYSGCGGNANRFKTIEECRRTCVG; ends and bridges not checked; cysteine pairing not given here)
displacement of 125I-αDTX from the tetramer [6]: readily displaced | inhibition of IK, sensitivity difference between channels (Kv1.4-1.6-1.1-1.2): significant sensitivity difference

ShK: toxin competing with 125I-αDTX binding; parent of derivative ShK-Dap^22
antagonism of 125I-αDTX binding ([6]; 2.5 μM 125I-αDTX, transfected HEK cells, FIG. 4C): to a greater extent than does the derivative ShK-Dap^22

α-dendrotoxin (QPRRKLCILHRNPGRCYDKIPAFYYNQKKKQCERFDWSGCGGNSNRFKTIEECRRTCIG) [αDTX]
displacement of 125I-αDTX from the tetramer [6]: readily displaced
